# Laboratory results reported in patent publication US7906491B2 (Univisitair Medisch Centrum Utrecht, priority 2002, dated 2011).
# Key:
# Epac1-ΔDEP1 = biological target: T1, Epac1-ΔDEP1 (Homo sapiens, UniProt O95398); experiment: In vitro GEF assay: Epac activity in the exchange reaction towards Rap (mantGDP-loaded Rap1b); format: biochemical; on Relative activity of Epac*: key: +++: activity comparible to I-007; ++: activity between I-007 and cAMP; +: activity comparible to cAMP; ±: activity less than cAMP
# T1 sequence (O95398 191-923 limits assumed): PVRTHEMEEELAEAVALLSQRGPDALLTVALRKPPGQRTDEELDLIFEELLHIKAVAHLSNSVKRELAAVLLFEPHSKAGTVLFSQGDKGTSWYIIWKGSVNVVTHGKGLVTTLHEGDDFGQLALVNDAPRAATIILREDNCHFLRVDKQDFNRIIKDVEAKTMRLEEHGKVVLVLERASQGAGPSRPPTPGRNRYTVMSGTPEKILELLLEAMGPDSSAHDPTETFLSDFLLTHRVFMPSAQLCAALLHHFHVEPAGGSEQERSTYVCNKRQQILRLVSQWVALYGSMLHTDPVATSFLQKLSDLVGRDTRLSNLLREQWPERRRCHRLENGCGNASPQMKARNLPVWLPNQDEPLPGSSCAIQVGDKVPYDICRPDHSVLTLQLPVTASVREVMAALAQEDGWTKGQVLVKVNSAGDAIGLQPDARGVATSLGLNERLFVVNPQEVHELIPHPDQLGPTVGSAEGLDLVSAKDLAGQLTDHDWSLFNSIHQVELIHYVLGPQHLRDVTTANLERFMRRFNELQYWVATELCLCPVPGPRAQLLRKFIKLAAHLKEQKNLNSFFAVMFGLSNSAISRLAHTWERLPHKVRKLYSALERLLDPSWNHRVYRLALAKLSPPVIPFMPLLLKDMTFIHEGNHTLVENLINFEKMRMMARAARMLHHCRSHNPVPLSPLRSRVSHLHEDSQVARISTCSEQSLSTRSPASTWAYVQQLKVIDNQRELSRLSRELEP
# Procedure: In vitro GEF assays were performed as described (3,16). […] Buffer conditions were 50 mM Tris pH7.4, 150 mM NaCl, 5% glycerol, 5 mM DTE, 60 μM GTP. Reactions were carried out in 96-well plates and measured in a Cary Eclipse from Varian Inc., using the manufacturers software.
# [1] = system: extracellular signal-regulated kinase (ERK); experiment: ERK activation / inactivation in vivo (cells); format: cell-based
# CREB = CREB phosphorylation in Ovcar3 cells; format: cell-based; details: concentration of 200 μM
# Procedure: A: 8-pCPT-2′-O-Me-cAMP stimulates cell adhesion. Upper panel: quantification of Ovcar3 cells adhering to fibronectin after treatment with increasing concentrations of 8-pCPT-2′-O-Me-cAMP. Lower panel: Ovcar3 cells were treated with increasing concentrations of 8-pCPT-2′-O-Me-cAMP for 15 min, cells were lysed and analyzed for activation of Rap1 (upper blot) and CREB (lower blot). Total Rap1 levels are shown (middle blot). B: 8-pCPT-2′-O-Me-cAMP increases the rate of cell adhesion. Upper panel: quantification of Ovcar3 cells adhering to fibronectin at various time points. Lower panel: cells were treated with 60 μM 8-pCPT-2′-O-Me-cAMP for the indicated times. Cell lysates were analyzed for activation of Rap1 (upper blot) and CREB (lower blot). Total levels of Rap1 in cell lysates are shown (middle blot). C: Ovcar3 cells were either pre-incubated at 37° C. for 30 min with the PKA inhibitor H-89 (10 μM) 30 min prior to seeding onto the wells (‘Short’) or H-89 was added 30 min prior to trypsinization and during the recovery period (‘Long’) and seeded onto wells in the absence or presence of 8-pCPT-2′-O-Me-cAMP (100 μM). Cells were allowed to adhere for 1 h. D, cAMP-induced adhesion to fibronectin is blocked by inhibitors of Rap1. […] Cells were treated with 8-Br-cAMP or 8-pCPT-2′-O-Me-cAMP and adhesion to fibronectin was determined. […]
# Ovcar3 cells = experiment: Adhesion assay of Ovcar3 cells to fibronectin; format: cell-based
# Procedure: A: 8-pCPT-2′-O-Me-cAMP stimulates cell adhesion. Upper panel: quantification of Ovcar3 cells adhering to fibronectin after treatment with increasing concentrations of 8-pCPT-2′-O-Me-cAMP. Lower panel: Ovcar3 cells were treated with increasing concentrations of 8-pCPT-2′-O-Me-cAMP for 15 min, cells were lysed and analyzed for activation of Rap1 (upper blot) and CREB (lower blot). Total Rap1 levels are shown (middle blot). B: 8-pCPT-2′-O-Me-cAMP increases the rate of cell adhesion. Upper panel: quantification of Ovcar3 cells adhering to fibronectin at various time points. Lower panel: cells were treated with 60 μM 8-pCPT-2′-O-Me-cAMP for the indicated times. Cell lysates were analyzed for activation of Rap1 (upper blot) and CREB (lower blot). Total levels of Rap1 in cell lysates are shown (middle blot). C: Ovcar3 cells were either pre-incubated at 37° C. for 30 min with the PKA inhibitor H-89 (10 μM) 30 min prior to seeding onto the wells (‘Short’) or H-89 was added 30 min prior to trypsinization and during the recovery period (‘Long’) and seeded onto wells in the absence or presence of 8-pCPT-2′-O-Me-cAMP (100 μM). Cells were allowed to adhere for 1 h. D, cAMP-induced adhesion to fibronectin is blocked by inhibitors of Rap1. Left panel: Ovcar3 cells were transiently transfected with either mock DNA, increasing concentrations of HA-Rap1GAP II (0.5, 1, 2 or 6 μg, respectively), HA-Rap1GAPI (6 μg) or HA-RBD of RalGDS (6 μg), respectively. Cells were treated with 8-Br-cAMP or 8-pCPT-2′-O-Me-cAMP and adhesion to fibronectin was determined. […]
# In functional assays, 8-pCPT-2′-O-Me-cAMP appeared to induce integrin-mediated cell adhesion through Epac and Rap1. […] The cells were seeded onto fibronectin-coated plates in the presence or absence of 8-pCPT-2′-O-Me-cAMP and the amount of cells that adhered after a certain period of time was quantified. […]
# 24-well plates were coated overnight with 2 μg/ml fibronectin (Sigma, St. Louis, Mo., USA) in sodium bicarbonate buffer (Sigma, St. Louis, Mo., USA). […] Cells were centrifuged, counted and resuspended at 3×10^5 cells/ml in serum-free RPMI with 0.5% BSA. […]
structure (smiles),measurement,setting,value
"CO[C@@H]1[C@@H]2OP(=O)(O)OC[C@H]2O[C@H]1n1c(Sc2ccc(Cl)cc2)nc2c(N)ncnc21 [Compound I-007, 8-(4-chloro-phenylthio)-2′-O-methyladenosine-3′,5′-cyclic monophosphate]",maximal activity of Epac1 compared to cAMP,Epac1-ΔDEP1; in vitro,three-fold higher
same,Relative activity of Epac*,Epac1-ΔDEP1; in vitro in the exchange reaction towards Rap,+++
same,EC50,"Epac1-ΔDEP1; in vitro, FIG. 4, read-out: Half-maximal activation of Epac1",2.2 µM
same,activation and inactivation of ERK,[1],affected neither the activation nor the inactivation
same,CREB phosphorylation,CREB,did not induce CREB phosphorylation
same,EC50,"Ovcar3 cells; Homo sapiens, OVCAR-3, FIG. 7A, read-out: EC50 of enhanced cell adhesion to fibronectin",~30 µM
same,time after which increased adhesion was already observed,"Ovcar3 cells; fibronectin, time-course, FIG. 7B",30 min
